Test results from PMC7318222, “A Family of Water‐Immiscible, Dipolar Aprotic, Diamide Solvents from Succinic Acid” (Chemsuschem, 2020).

What follows are compounds tested against T1, PPARδ (Homo sapiens, UniProt Q03181) (assay: PPARδ CALUX reporter gene assay). Details: PC10, 24 h exposure.
T1 construct: expression construct for the full-length human receptor under investigation; expressed in transfected cells; host or cells: human U2-OS cells (ATCC HTB-96), stably transfected
T1 sequence (Q03181 1-441): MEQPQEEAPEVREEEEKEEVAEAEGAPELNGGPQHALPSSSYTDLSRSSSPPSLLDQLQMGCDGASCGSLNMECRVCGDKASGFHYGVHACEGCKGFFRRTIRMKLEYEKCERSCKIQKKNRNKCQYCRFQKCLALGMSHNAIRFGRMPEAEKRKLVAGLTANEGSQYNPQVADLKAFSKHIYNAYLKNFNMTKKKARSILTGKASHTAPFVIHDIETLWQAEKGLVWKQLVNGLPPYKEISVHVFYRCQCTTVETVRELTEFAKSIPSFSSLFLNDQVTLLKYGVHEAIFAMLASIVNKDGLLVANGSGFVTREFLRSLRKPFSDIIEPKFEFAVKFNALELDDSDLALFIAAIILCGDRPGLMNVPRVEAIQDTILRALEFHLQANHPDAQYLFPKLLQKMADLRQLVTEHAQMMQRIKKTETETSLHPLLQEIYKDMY
Format: cell-based
Set-up: key: –: no effect observed up to the highest test concentration
Text: nitroaniline ≥98.0% was purchased from Alfa Aeser. Cyrene was supplied by Circa group. N-butylpyrrolidinone was supplied by Eastman chemicals. […]
Polyarylethersulfone of 55,000 Da were obtained from INGE.BASF, Germany. The CALUX cell lines have been described previously.[1] They are based on human U2-OS cells (ATCC, HTB-96) stably transfected with an expression construct for the full-length human receptor under investigation, and a reporter construct consisting of multimerized responsive elements for the cognate receptor coupled to a minimal promoter element (TATA) and a luciferase gene. Cells were maintained as described previously,[2] using cell culture media and supplements from Fisher Scientific as described in the experimental procedures section. […]
In vitro reporter gene assays
The automated CALUX assays were carried out similarly as described earlier,[12] with some adaptations. In brief, the assay was performed in CO2 independent medium (Fisher Scientific, […]
with 30 µl cell suspension/well. After 24 h, exposure medium was prepared. A dilution series in 0.5log unit increments of each test compound (in DMSO) was added to a 96-wells plate containing assay medium (2% v/v). Of this exposure mixture, 30 µl was added to the assay plates containing the CALUX cells, resulting in a final DMSO concentration of 1%. Additionally, DMSO blanks and a full dose response curve of the relevant reference compound were included on each plate. All samples were tested in triplicate. The preparation of the compound dilution series as well as the exposure of the cells were performed on a Hamilton StarLET liquid handling robot coupled to a Cytomat incubator.
Directly after exposure, plates were sealed with non-breathing plate seals (Plate sealer, easy seal […]
After 24 h the exposure medium was removed using an EL406 washer-dispenser (BioTek) and 10 µl/well triton lysisbuffer was added by the EL406.
Subsequently, the luciferase signal was measured in a luminometer (InfinitePro coupled to a Connect Stacker, both TECAN). In order to be able to detect receptor antagonism, several assays were also performed in antagonistic mode. The assay procedure was as described above, with the only exception that the EC50 concentration of the reference agonist was present during the exposure.
The luminometer data was analysed as follows; the average of the triplicate wells was determined, […]

| LEC PPARδ | Compound |
| --- | --- |
| – | CCCCN(CC)C(=O)CCC(=O)N(CC)CCCC [EBSA, N,N′‐diethyl‐N,N′‐dibutylsuccindiamide] |
| – | CCCCN(C)C(=O)CCC(=O)N(C)CCCC [MBSA, N,N′‐dimethyl‐N,N′‐dibutylsuccindiamide] |
| −2.3 Log M | CCCCN1CCCC1=O [NBP, N‐Butylpyrrolidinone, reference compound] |
| – | CCCCN(CCCC)C(=O)CCC(=O)N(CCCC)CCCC [TBSA, N,N,N′,N′‐tetrabutylsuccindiamide] |
